The values that follow come from patent US12208122B2, “Methods of treating bleeding in a subject treated with an antiplatelet agent” (Cellphire, Inc., priority 2019, dated 2025).

Test [1] deals with platelets (platelet rich plasma). Kind of test: Transmission light aggregometry, collagen-induced platelet aggregation in PRP. Type of test: cell-based, human. On the procedure:
The aggregation of platelets (in platelet rich plasma) was evaluated using transmission light aggregrometry. […] (FIG. 8).
(§1) Platelets will aggregate with collagen and arachidonic acid stimulation. […] The PL chip system on the T-TAS® was used to emulate in vitro platelet binding and aggregation due to the exposure of collagen in the vasculature under shear conditions.
(§2) Plasma samples with platelet or thrombosomes or combination of both are loaded into cuvettes and placed into the aggregometry chambers. The chambers warm the sample and provide constant stirring. The initiation of aggregation can be done by multiple types of […] agents not limited to thrombin, ADP, collagen and any agent known to stimulate platelet aggregation. The samples can also have been taken as ex-vivo, or in-vitro supplemented with inhibitors. The instrument begins the assay by first recording the light transmission previous to stimulation for 2 minutes. The stimulant of interest is then introduced by the technician and the change in light transmission is recorded over time. The increase in light transmission corresponds to increase in platelet aggregation.

Test [2] has the same test system. Kind of test: Transmission light aggregometry, arachidonic acid-induced platelet aggregation in PRP. It counts as cell-based, human.
From the text: as §1
as §2, with “The samples can also have been taken as ex-vivo, or in-vitro supplemented with inhibitors.” left out
Platelet rich plasma was taken from subject on 800 mg ibuprofen.

Test [3] concerns whole blood. Nature of the test: T-TAS PL chip (collagen only) thrombus formation, whole blood. It counts as cell-based, human. As to conditions: whole blood with 100 and 500 μM aspirin; FIG. 17.
From the text: (§3) In the Total Thrombus-formation Analysis System (T-TAS®, FUJIMORI KOGYO CO., LTD), the sample is forced through collagen-coated microchannels using mineral oil. Changes in pressure are used to assess thrombus formation. The Occlusion Start Time is time it takes to reach 10 kPa, and the Occlusion Time=time it takes to each Δ80 kPa using an AR chip (e.g., Zacros Item No, TC0101). According to the manufacturer, an AR chip can be used for analyzing the formation of a mixed white thrombus consisting chiefly of fibrin and activated platelets. It has a flow path (300 μm wide by 50 μm high) coated with collagen and tissue factors and can be used to analyze the clotting function and platelet function. In comparison, a PL chip can be used for analyzing the formation of a platelet thrombus consisting chiefly of activated platelets. A PL chip has a flow path coated with collagen only and can be used to analyze the platelet function.
as §1
Evaluation by T-TAS® Using a PL Chip
PL chips are run similarly to AR chips, but this chip is only coated with collagen alone.

Test [4] concerns platelet rich plasma. Nature of the test: T-TAS AR chip (collagen and tissue factor) occlusion under shear, platelet rich plasma. Type of test: cell-based, human.
Test [5] relates to platelets (platelet rich plasma). Nature of the test: Transmission light aggregometry, ADP-induced platelet aggregation in PRP. Type of test: cell-based, human. To be noted: cangrelor 0.5 μM-3.5 μM, 10 μM ADP, FIG. 1.
From the text: as §2

Test [6] concerns platelet rich plasma. Kind of test: T-TAS AR chip (collagen and tissue factor) occlusion under shear, platelet rich plasma. It counts as cell-based, human. As to conditions: for area under the curve (AUC): FIG. 3; for time to occlusion: FIG. 4.
From the text: as §3
The effect of cangrelor on platelet occlusion under shear was evaluated by T-TAS®.
Evaluation by T-TAS® using an AR chip. AR chips are characterized by a single channel containing collagen and tissue factor; they can be used to analyze clotting and platelet function.

Another test concerns NOD/SCID mice. Nature of the test: Tail-snip bleed model in clopidogrel-treated NOD/SCID mice. Type of test: in vivo, mouse. To be noted: ~3 times the clinical dose of clopidogrel for 5 days (untreated 9 minutes). On the procedure:
The mouse was treated with clopidogrel for 5 days. The mouse was anesthetized, the tail end was snipped off followed by thrombosomes being immediately administered. The time from tail snip to tail stop bleeding was recorded by visual inspection.
NOD/SCID mice were treated with ˜ 3 times the clinical dose of clopidogrel for 5 days then assessed in the tail-snip bleed model. The bleed time (min) was extended to 17.8 minutes with clopidogrel treatment verses untreated at 9 minutes (data not shown).

The next test concerns platelets. To be noted: cited from earlier work.
Test [7] has as its system whole blood. Nature of the test: T-TAS AR chip occlusion under shear, whole blood. Type of test: cell-based, human. To be noted: whole blood with 6 μM eptifibatide (whole blood alone 8 minutes); FIG. 9.
From the text: as §3
The effect of thrombosomes on shortening clotting times while in the presence of eptifibatide was also studied. The ability of thrombosomes to recover occlusion times was studied on the T-TAS® system. The T-TAS® system measures occlusion time under shear forces with collagen and thromboplastin stimulation. The whole blood profile of occlusion and AUC on the AR T-TAS® chip lengthened and decreased, respectively, with eptifibatide. […]

Like-named read-outs stand apart in the source and are kept apart here. Where a SMILES comes first, the peptide text is derived from it. Bridges are numbered along the chain shown (N, C = ends). [ ]: non-standard residue; d: D form. hArg = N=C(N)NCCCC[C@H](N)C(=O)O; Mpa = O=C(O)CCS

`CC(=O)Oc1ccccc1C(=O)O` [aspirin, acetylsalicylic acid]: the collagen-induced platelet aggregation entry in [1] (collagen 10 ug/mL, aspirin 100-400 μM, FIG. 16) was “partially inhibited”. Moreover, the “arachidonic acid-induced platelet aggregation” value in test [2] (AA 500 ug/mL, aspirin 100-400 μM, PRP, FIG. 16) is on record as “completely inhibited”. The “platelet binding and aggregation on collagen under shear (PL chip)” value in the test with whole blood [3] is recorded as “largely limited”. Also, in the test on platelet rich plasma [4] (PRP taken from a subject on 81 mg/day aspirin, FIGS. 29A, 29B), the “occlusion on T-TAS flow system” value is recorded as “failed to occlude”.

With `CSCCNc1nc(SCCC(F)(F)F)nc2c1ncn2[C@@H]1O[C@H](COP(=O)(O)OP(=O)(O)C(Cl)(Cl)P(=O)(O)O)[C@@H](O)[C@H]1O` [cangrelor], the “ADP-induced platelet aggregation (integrated aggregation curve)” value in [5] was “complete inhibition”. The compound also gave an occlusion time in the test with platelet rich plasma [6] (PRP treated with 100 ng/mL cangrelor and ADP (from 19), FIGS. 25A, 25B) of 26 min. The “platelet adhesion and occlusion on AR chip” value in the test with platelet rich plasma [6] (cangrelor 1 μM combined with ADP 10 μM, PRP, FIG. 2) was “essentially eliminated”. The “platelet occlusion on AR chip” value in the test on platelet rich plasma [6] (cangrelor alone 1 μM, PRP, FIG. 2) is “did not exhibit inhibition on occlusion”. In addition, the “area under the curve (AUC)” value is given as “little effect on AUC value” in the test with platelet rich plasma [6] (cangrelor alone, PRP) and “dropped close to zero” with platelet rich plasma [6] (cangrelor combined with ADP stimulation, PRP). Further, the time to occlusion result in the test on platelet rich plasma [6] (cangrelor alone, PRP) is “little effect on occlusion times”; in the test with platelet rich plasma [6] (cangrelor plus ADP stimulation, PRP) it was “inhibited occlusion essentially completely”.

In the test on NOD/SCID mice, `COC(=O)[C@H](c1ccccc1Cl)N1CCc2sccc2C1` [clopidogrel] came in with a bleed time of 17.8 min. For the same compound, the “time to return of platelet function” value with platelets (after stopping infusion) is “approximately 1 hour”.

Turning to `N=C(N)NCCCC[C@@H]1NC(=O)CCSSC[C@@H](C(N)=O)NC(=O)[C@@H]2CCCN2C(=O)[C@H](Cc2c[nH]c3ccccc23)NC(=O)[C@H](CC(=O)O)NC(=O)CNC1=O` [eptifibatide] ([Mpa][hArg]GDWPC-NH2; disulfide 1-7), the collagen-induced platelet aggregation entry in [1] (collagen 10 μg/mL, all eptifibatide concentrations tested, FIG. 8) is reported as “completely inhibited”. Moreover, the occlusion time was 16 min in the test on whole blood [7] and “over 30 minutes” in the test on platelet rich plasma [4] (PRP treated with 9 μM eptifibatide (from 18.43), FIGS. 27A, 27B). Further, the “time for bleeding time to return to normal after drug stoppage” value with platelets (after drug stoppage) is no more than 1 h.

For the compound `CC(C)Cc1ccc(C(C)C(=O)O)cc1` (centres unmarked) [ibuprofen], the “aggregation in response to arachidonic acid” value in [2] (PRP from subject on 800 mg ibuprofen, FIG. 31A) is “lack of aggregation”. The “occlusion on T-TAS flow system” value with platelet rich plasma [4] (PRP from subject on 800 mg ibuprofen, addition of ADP, FIG. 31B) is on record as “abolished occlusion”; with platelet rich plasma [4] (PRP from subject on 800 mg ibuprofen, no ADP, FIG. 31B) it was “demonstrated occlusion”.

Regarding `CCCSc1nc(N[C@@H]2C[C@H]2c2ccc(F)c(F)c2)c2nnn([C@@H]3C[C@H](OCCO)[C@@H](O)[C@H]3O)c2n1` [ticagrelor], the “time to return of platelet function” value with platelets (after the last dosage) was “approximately 72 hours”.

As to `CCCCS(=O)(=O)N[C@@H](Cc1ccc(OCCCCC2CCNCC2)cc1)C(=O)O` [tirofiban], in the test with platelet rich plasma [4] (PRP treated with 100 ng/mL tirofiban (from 18.43), FIGS. 26A, 26B), the occlusion time result is “no occlusion”.
